# According to PubChem BioAssay AID1963828 (Molecular Pharmacology Branch, DTP, NCI, 2024):
# Test system: 991263-137-R1-J2-PDC complex spheroid viability
# Test: Anticancer human tumor 991263-137-R1-J2-PDC patient-derived colon adenocarcinoma cell line growth inhibition [POLQ]
# Settings: for IC50: curve of first compound; for viability, T/C: stronger effect = lower value
# Summary of the method: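 Growth inhibition in 3D: complex spheroids (tumor PDC, HUVEC, MSC) treated with POLQ inhibitor combinations; where Cmax unknown, highest tested concentration 10 microM, except SN-38 at 1 microM.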
# [1] = second compound 0.0316 µM, first compound 0.0316 µM
# [2] = second compound 0.0316 µM, first compound 0.1 µM
# [3] = second compound 0.0316 µM, first compound 0.316 µM
# [4] = second compound 0.0316 µM, first compound 1 µM
# [5] = second compound 0.0316 µM, first compound 3.16 µM
# [6] = second compound 0.0316 µM, first compound 10 µM
# [7] = second compound 0.1 µM, first compound 0.0316 µM
# [8] = second compound 0.1 µM, first compound 0.1 µM
# [9] = second compound 0.1 µM, first compound 0.316 µM
# [10] = second compound 0.1 µM, first compound 1 µM
# [11] = second compound 0.1 µM, first compound 3.16 µM
# [12] = second compound 0.1 µM, first compound 10 µM
# [13] = second compound 0.316 µM, first compound 0.0316 µM
# [14] = second compound 0.316 µM, first compound 0.1 µM
# [15] = second compound 0.316 µM, first compound 0.316 µM
# [16] = second compound 0.316 µM, first compound 1 µM
# [17] = second compound 0.316 µM, first compound 3.16 µM
# [18] = second compound 0.316 µM, first compound 10 µM
# [19] = second compound 1 µM, first compound 0.0316 µM
# [20] = second compound 1 µM, first compound 0.1 µM
# [21] = second compound 1 µM, first compound 0.316 µM
# [22] = second compound 1 µM, first compound 1 µM
# [23] = second compound 1 µM, first compound 3.16 µM
# [24] = second compound 1 µM, first compound 10 µM
# [25] = second compound 3.16 µM, first compound 0.0316 µM
# [26] = second compound 3.16 µM, first compound 0.1 µM
# [27] = second compound 3.16 µM, first compound 0.316 µM
# [28] = second compound 3.16 µM, first compound 1 µM
# [29] = second compound 3.16 µM, first compound 3.16 µM
# [30] = second compound 3.16 µM, first compound 10 µM
# [31] = second compound 10 µM, first compound 0.0316 µM
# [32] = second compound 10 µM, first compound 0.1 µM
# [33] = second compound 10 µM, first compound 0.316 µM
# [34] = second compound 10 µM, first compound 1 µM
# [35] = second compound 10 µM, first compound 3.16 µM
# [36] = second compound 10 µM, first compound 10 µM
# 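Further: spheroids exposed to compounds for 7 days before readout.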
# 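Wherever viability, T/C is given: 100% = DMSO vehicle control viability.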
smiles,measurement,setting,value
CC1COCCN1c1cc(C2(O)CC3CCC(C2)O3)c2cnn(-c3ccn[nH]3)c2n1 (stereo unspecified) + Cc1cccc(N(C)C(=O)C2C(O)CCN2c2nc(C)cc(C(F)(F)F)c2C#N)c1,IC50,second compound 0.0316 µM,1.24 µM
same,IC50,second compound 0.1 µM,2.18 µM
same,IC50,second compound 0.316 µM,1.64 µM
same,IC50,second compound 1 µM,3.12 µM
same,IC50,second compound 3.16 µM,2.57 µM
same,IC50,second compound 10 µM,0.959 µM
same,"viability, T/C",[1],107%
same,"viability, T/C",[2],84.8%
same,"viability, T/C",[3],67.5%
same,"viability, T/C",[4],55.8%
same,"viability, T/C",[5],35.8%
same,"viability, T/C",[6],30.1%
same,"viability, T/C",[7],110%
same,"viability, T/C",[8],103%
same,"viability, T/C",[9],82.3%
same,"viability, T/C",[10],61.1%
same,"viability, T/C",[11],46.4%
same,"viability, T/C",[12],29.2%
same,"viability, T/C",[13],107%
same,"viability, T/C",[14],110%
same,"viability, T/C",[15],75.9%
same,"viability, T/C",[16],59.2%
same,"viability, T/C",[17],42.5%
same,"viability, T/C",[18],28.3%
same,"viability, T/C",[19],92%
same,"viability, T/C",[20],98.2%
same,"viability, T/C",[21],87.1%
same,"viability, T/C",[22],67.4%
same,"viability, T/C",[23],52.5%
same,"viability, T/C",[24],28.6%
same,"viability, T/C",[25],93.4%
same,"viability, T/C",[26],85.5%
same,"viability, T/C",[27],74.4%
same,"viability, T/C",[28],61.6%
same,"viability, T/C",[29],47.4%
same,"viability, T/C",[30],34.6%
same,"viability, T/C",[31],90.9%
same,"viability, T/C",[32],98.8%
same,"viability, T/C",[33],75.2%
same,"viability, T/C",[34],48.2%
same,"viability, T/C",[35],37.7%
same,"viability, T/C",[36],25.9%
CCCS(=O)(=O)Nc1ccc(F)c(C(=O)c2c[nH]c3ncc(-c4ccc(Cl)cc4)cc23)c1F + COC1C(OC(N)=O)C(O)C(Oc2ccc3c(O)c(NC(=O)c4ccc(O)c(CC=C(C)C)c4)c(=O)oc3c2C)OC1(C)C,IC50,second compound 0.0316 µM,> 10 µM
same,IC50,second compound 0.1 µM,> 10 µM
same,IC50,second compound 0.316 µM,> 10 µM
same,IC50,second compound 1 µM,> 10 µM
same,IC50,second compound 3.16 µM,> 10 µM
same,IC50,second compound 10 µM,> 10 µM
same,"viability, T/C",[1],110%
same,"viability, T/C",[2],98.7%
same,"viability, T/C",[3],106%
same,"viability, T/C",[4],105%
same,"viability, T/C",[5],102%
same,"viability, T/C",[6],104%
same,"viability, T/C",[7],82%
same,"viability, T/C",[8],109%
same,"viability, T/C",[9],97.5%
same,"viability, T/C",[10],85.5%
same,"viability, T/C",[11],129%
same,"viability, T/C",[12],109%
same,"viability, T/C",[13],96.9%
same,"viability, T/C",[14],94.9%
same,"viability, T/C",[15],121%
same,"viability, T/C",[16],130%
same,"viability, T/C",[17],97.9%
same,"viability, T/C",[18],108%
same,"viability, T/C",[19],105%
same,"viability, T/C",[20],103%
same,"viability, T/C",[21],121%
same,"viability, T/C",[22],95.9%
same,"viability, T/C",[23],105%
same,"viability, T/C",[24],84.8%
same,"viability, T/C",[25],102%
same,"viability, T/C",[26],124%
same,"viability, T/C",[27],99.7%
same,"viability, T/C",[28],105%
same,"viability, T/C",[29],89.9%
same,"viability, T/C",[30],97.6%
same,"viability, T/C",[31],94.2%
same,"viability, T/C",[32],118%
same,"viability, T/C",[33],95.2%
same,"viability, T/C",[34],111%
same,"viability, T/C",[35],113%
same,"viability, T/C",[36],110%
CNCc1ccc(-c2[nH]c3cc(F)cc4c3c2CCNC4=O)cc1 + COC1C(OC(N)=O)C(O)C(Oc2ccc3c(O)c(NC(=O)c4ccc(O)c(CC=C(C)C)c4)c(=O)oc3c2C)OC1(C)C,IC50,second compound 0.0316 µM,> 10 µM
same,IC50,second compound 0.1 µM,> 10 µM
same,IC50,second compound 0.316 µM,> 10 µM
same,IC50,second compound 1 µM,> 10 µM
same,IC50,second compound 3.16 µM,> 10 µM
same,IC50,second compound 10 µM,> 10 µM
same,"viability, T/C",[1],85.7%
same,"viability, T/C",[2],101%
same,"viability, T/C",[3],94%
same,"viability, T/C",[4],97.1%
same,"viability, T/C",[5],121%
same,"viability, T/C",[6],103%
same,"viability, T/C",[7],106%
same,"viability, T/C",[8],104%
same,"viability, T/C",[9],109%
same,"viability, T/C",[10],98.5%
same,"viability, T/C",[11],101%
same,"viability, T/C",[12],95.9%
same,"viability, T/C",[13],105%
same,"viability, T/C",[14],91.6%
same,"viability, T/C",[15],106%
same,"viability, T/C",[16],100%
same,"viability, T/C",[17],99.6%
same,"viability, T/C",[18],98.5%
same,"viability, T/C",[19],82.1%
same,"viability, T/C",[20],111%
same,"viability, T/C",[21],117%
same,"viability, T/C",[22],104%
same,"viability, T/C",[23],110%
same,"viability, T/C",[24],97.3%
same,"viability, T/C",[25],92.2%
same,"viability, T/C",[26],112%
same,"viability, T/C",[27],111%
same,"viability, T/C",[28],106%
same,"viability, T/C",[29],119%
same,"viability, T/C",[30],102%
same,"viability, T/C",[31],107%
same,"viability, T/C",[32],110%
same,"viability, T/C",[33],105%
same,"viability, T/C",[34],102%
same,"viability, T/C",[35],119%
same,"viability, T/C",[36],106%
